{
  "source": "patent US10253002B2",
  "about": "“Compounds and methods of treating infections” (Neoculi Pty Ltd., priority 2013, dated 2019)",
  "system": "VRE",
  "experiment": "Broth microdilution MIC, Example 7 (NCL812 and analogues)",
  "format": "cell-based, Enterococcus spp.",
  "details": "Enterococcus, VRE",
  "method_in_brief": "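Turbidity read visually and then at 600 nm defined the MIC (μg/ml), comparing drug-containing wells with a growth-control well lacking antimicrobial. Testing followed the CLSI broth microdilution method, in duplicate, using two strains per organism group.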",
  "note": "Where two headings read alike, the source gives them in different places.",
  "data": [
    {"smiles": "CC1(C)S[C@@H]2[C@H](NC(=O)[C@H](N)c3ccccc3)C(=O)N2[C@H]1C(=O)O", "note": "[Ampicillin]", "values": [
      {"measurement": "MIC", "setting": "24 h, read-out: MIC (μg/ml) at 24 hours, VRE 1, isolate VRE 1, 24 hours, 1st and 2nd replicate rows", "result": 0.5, "unit": "µg/mL"},
      {"measurement": "MIC", "setting": "24 h, read-out: MIC (μg/ml) at 24 hours, VRE 2, isolate VRE 2, 24 hours, 1st and 2nd replicate rows", "result": 0.25, "unit": "µg/mL"},
      {"measurement": "MIC", "setting": "VRE 002 [H12c], Phase I, 1st, read-out: MIC", "result": 1, "unit": "µg/mL"},
      {"measurement": "MIC", "setting": "VRE 002 [H12c], Phase I, 2nd, read-out: MIC", "result": 1, "unit": "µg/mL"},
      {"measurement": "MIC", "setting": "VRE 002 [H12c], Phase II, 1st, read-out: MIC", "result": 0.25, "unit": "µg/mL"},
      {"measurement": "MIC", "setting": "VRE 002 [H12c], Phase II, 2nd, read-out: MIC", "result": 0.25, "unit": "µg/mL"},
      {"measurement": "MIC", "setting": "VRE 003 [H14t], Phase I, 1st, read-out: MIC", "result": 0.5, "unit": "µg/mL"},
      {"measurement": "MIC", "setting": "VRE 003 [H14t], Phase I, 2nd, read-out: MIC", "result": 0.5, "unit": "µg/mL"},
      {"measurement": "MIC", "setting": "VRE 003 [H14t], Phase II, 1st, read-out: MIC", "result": 0.25, "unit": "µg/mL"},
      {"measurement": "MIC", "setting": "VRE 003 [H14t], Phase II, 2nd, read-out: MIC", "result": 0.25, "unit": "µg/mL"},
      {"measurement": "MIC", "setting": "VRE 004 [H16c], Phase I, 1st, read-out: MIC", "result": 1, "unit": "µg/mL"},
      {"measurement": "MIC", "setting": "VRE 004 [H16c], Phase I, 2nd, read-out: MIC", "result": 1, "unit": "µg/mL"},
      {"measurement": "MIC", "setting": "VRE 004 [H16c], Phase II, 1st, read-out: MIC", "result": 0.25, "unit": "µg/mL"},
      {"measurement": "MIC", "setting": "VRE 004 [H16c], Phase II, 2nd, read-out: MIC", "result": 0.25, "unit": "µg/mL"},
      {"measurement": "MIC", "setting": "VRE 005 [H17c], Phase I, 1st, read-out: MIC", "result": 1, "unit": "µg/mL"},
      {"measurement": "MIC", "setting": "VRE 005 [H17c], Phase I, 2nd, read-out: MIC", "result": 1, "unit": "µg/mL"},
      {"measurement": "MIC", "setting": "VRE 005 [H17c], Phase II, 1st, read-out: MIC", "result": 0.25, "unit": "µg/mL"},
      {"measurement": "MIC", "setting": "VRE 005 [H17c], Phase II, 2nd, read-out: MIC", "result": 0.25, "unit": "µg/mL"},
      {"measurement": "MIC", "setting": "VRE 006 [H19t], Phase I, 1st, read-out: MIC", "result": 1, "unit": "µg/mL"},
      {"measurement": "MIC", "setting": "VRE 006 [H19t], Phase I, 2nd, read-out: MIC", "result": 1, "unit": "µg/mL"},
      {"measurement": "MIC", "setting": "VRE 006 [H19t], Phase II, 1st, read-out: MIC", "result": 0.25, "unit": "µg/mL"},
      {"measurement": "MIC", "setting": "VRE 006 [H19t], Phase II, 2nd, read-out: MIC", "result": 0.25, "unit": "µg/mL"},
      {"measurement": "MIC", "setting": "VRE 007 [H23c], Phase I, 1st, read-out: MIC", "result": 1, "unit": "µg/mL"},
      {"measurement": "MIC", "setting": "VRE 007 [H23c], Phase I, 2nd, read-out: MIC", "result": 1, "unit": "µg/mL"},
      {"measurement": "MIC", "setting": "VRE 007 [H23c], Phase II, 1st, read-out: MIC", "result": 0.25, "unit": "µg/mL"},
      {"measurement": "MIC", "setting": "VRE 007 [H23c], Phase II, 2nd, read-out: MIC", "result": 0.25, "unit": "µg/mL"},
      {"measurement": "MIC", "setting": "VRE 008 [H16c(dc)], Phase I, 1st, read-out: MIC", "result": 1, "unit": "µg/mL"},
      {"measurement": "MIC", "setting": "VRE 008 [H16c(dc)], Phase I, 2nd, read-out: MIC", "result": 1, "unit": "µg/mL"},
      {"measurement": "MIC", "setting": "VRE 008 [H16c(dc)], Phase II, 1st, read-out: MIC", "result": 1, "unit": "µg/mL"},
      {"measurement": "MIC", "setting": "VRE 008 [H16c(dc)], Phase II, 2nd, read-out: MIC", "result": 1, "unit": "µg/mL"},
      {"measurement": "MIC", "setting": "VRE 009 [H25c], Phase I, 1st, read-out: MIC", "result": 1, "unit": "µg/mL"},
      {"measurement": "MIC", "setting": "VRE 009 [H25c], Phase I, 2nd, read-out: MIC", "result": 1, "unit": "µg/mL"},
      {"measurement": "MIC", "setting": "VRE 009 [H25c], Phase II, 1st, read-out: MIC", "result": 1, "unit": "µg/mL"},
      {"measurement": "MIC", "setting": "VRE 009 [H25c], Phase II, 2nd, read-out: MIC", "result": 1, "unit": "µg/mL"},
      {"measurement": "MIC", "setting": "VRE 010 [H26c(w)], Phase I, 1st, read-out: MIC", "result": 2, "unit": "µg/mL"},
      {"measurement": "MIC", "setting": "VRE 010 [H26c(w)], Phase I, 2nd, read-out: MIC", "result": 2, "unit": "µg/mL"},
      {"measurement": "MIC", "setting": "VRE 010 [H26c(w)], Phase II, 1st, read-out: MIC", "result": 1, "unit": "µg/mL"},
      {"measurement": "MIC", "setting": "VRE 010 [H26c(w)], Phase II, 2nd, read-out: MIC", "result": 1, "unit": "µg/mL"},
      {"measurement": "MIC", "setting": "VRE 011 [H26c(dc)], Phase I, 1st, read-out: MIC", "result": 1, "unit": "µg/mL"},
      {"measurement": "MIC", "setting": "VRE 011 [H26c(dc)], Phase I, 2nd, read-out: MIC", "result": 1, "unit": "µg/mL"},
      {"measurement": "MIC", "setting": "VRE 011 [H26c(dc)], Phase II, 1st, read-out: MIC", "result": 0.5, "unit": "µg/mL"},
      {"measurement": "MIC", "setting": "VRE 011 [H26c(dc)], Phase II, 2nd, read-out: MIC", "result": 0.5, "unit": "µg/mL"},
      {"measurement": "MIC", "setting": "VRE 012 [H35t], Phase I, 1st, read-out: MIC", "result": 0.5, "unit": "µg/mL"},
      {"measurement": "MIC", "setting": "VRE 012 [H35t], Phase I, 2nd, read-out: MIC", "result": 0.5, "unit": "µg/mL"},
      {"measurement": "MIC", "setting": "VRE 012 [H35t], Phase II, 1st, read-out: MIC", "result": 0.25, "unit": "µg/mL"},
      {"measurement": "MIC", "setting": "VRE 012 [H35t], Phase II, 2nd, read-out: MIC", "result": 0.5, "unit": "µg/mL"},
      {"measurement": "MIC", "setting": "VRE 013 [H37c(w)], Phase I, 1st, read-out: MIC", "result": 2, "unit": "µg/mL"},
      {"measurement": "MIC", "setting": "VRE 013 [H37c(w)], Phase I, 2nd, read-out: MIC", "result": 2, "unit": "µg/mL"},
      {"measurement": "MIC", "setting": "VRE 013 [H37c(w)], Phase II, 1st, read-out: MIC", "result": 1, "unit": "µg/mL"},
      {"measurement": "MIC", "setting": "VRE 013 [H37c(w)], Phase II, 2nd, read-out: MIC", "result": 1, "unit": "µg/mL"},
      {"measurement": "MIC", "setting": "VRE 014 [H37c(g)], Phase I, 1st, read-out: MIC", "result": 1, "unit": "µg/mL"},
      {"measurement": "MIC", "setting": "VRE 014 [H37c(g)], Phase I, 2nd, read-out: MIC", "result": 1, "unit": "µg/mL"},
      {"measurement": "MIC", "setting": "VRE 014 [H37c(g)], Phase II, 1st, read-out: MIC", "result": 1, "unit": "µg/mL"},
      {"measurement": "MIC", "setting": "VRE 014 [H37c(g)], Phase II, 2nd, read-out: MIC", "result": 1, "unit": "µg/mL"}
    ]}
  ]
}
